The test system of the assay is AKT protein phosphorylated on serine 473 (P-AKT-S473) in PC3 human prostate carcinoma cells. Nature of the assay: pAKT expression in PC3 human prostate carcinoma cells, MSD Multi-spot Biomarker detection (Test A). The class given is cell-based. Particulars: 1 to 2 h incubation, P-AKT-S473, absolute IC50, mean of two independent experiments. As to the method: The inhibitory activity of the molecules on AKT phosphorylation is measured using the MSD Multi-spot Biomarker detection technique from Meso Scale Discovery also described below. […] The primary antibody specific for […]) is coated on to an electrode in each well of the 96-well plates of the MSD kit: after the addition of a protein lysate to each well, the signal is visualized by adding a secondary detection antibody labeled with an electrochemiluminescent compound. The procedure followed is the one described in the kit. […] On day 2, the cells are incubated in the presence or absence of the test products for 1 to 2 h at 37° C. in the presence of 5% CO2. The molecules, diluted in dimethyl sulfoxide (DMSO Sigma #D2650), are added from a 20-times concentrated stock solution, the final percentage of DMSO being 0.1%. The molecules are tested either at a single concentration of less than or equal to 10 μM, or at increasing concentrations in a range that can extend from less than 1 nM to 10 μM. After this incubation, the cells are lysed for the preparation of the proteins. […] At this stage, the plates containing the lysates can be frozen at -20° C. or at -80° C. The wells of the 96 well plates of the MSD kit are saturated for 1 h at ambient temperature with the blocking solution of the MSD kit. Four washes are carried out with 150 μl of Tris Wash Buffer of the MSD kit. The lysates previously prepared are transferred into the 96-well multi-spot plates of the MSD kit and incubated for 1 h at ambient temperature, with shaking. Four washes are carried out with 150 μl of Tris Wash Buffer of the MSD kit. 25 μl of the MSD sulfo-tag detection antibody solution are added to the wells and incubated for 1 h at ambient temperature, with shaking. Four washes are carried out with 150 μl of Tris Wash Buffer of the MSD kit. 150 μl of Read Buffer of the MSD kit are added to the wells and the plates are read immediately on the S12400 instrument from Meso Scale Discovery. The instrument measures a signal for each well. Wells without cells and containing the lysis buffer serve to determine the background noise that will be subtracted from all the measurements (min). The wells containing cells in the absence of product and in the presence of 0.1% DMSO are considered to be the 100% signal (max). The percentage inhibition is calculated for each concentration of product tested, according to the following formula: (1-((test-min)/(max-min)))×100. […] Two independent experiments make it possible to calculate the mean of the IC50 values.

Usually IC50 stands for the midpoint of a concentration-inhibition curve.

For the compound `O=C(Cc1nc(N2CCOC(CO)C2)cc(=O)[nH]1)N1CCc2c(Cl)cccc21` (single isomer, unassigned; (-)) [Example 25b, (−)-2-[2-(4-Chloro-2,3-dihydroindol-1-yl)-2-oxoethyl]-6-(2-hydroxymethylmorpholin-4-yl)-3H-pyrimidin-4-one], the IC50 (PC3 cells) turned out to be 27 nM.

In the case of `O=C(Cc1nc(N2CCOCC2)cc(=O)[nH]1)N1c2ccccc2CC1c1ccccc1` (single isomer, unassigned; (-)) [Example 25d, (−)-6-(morpholin-4-yl)-2-{2-oxo-2-[2-phenyl-2,3-dihydro-1H-indol-1-yl]ethyl}pyrimidin-4(3H)-one], the IC50 (PC3 cells) is 5 nM.

As for `CC1Cc2c(Br)cccc2N1C(=O)Cc1nc(N2CCOCC2)cc(=O)[nH]1` (single isomer, unassigned; (-)) [Example 26c, (−)-2-{2-[4-bromo-2-methyl-2,3-dihydro-1H-indol-1-yl]-2-oxoethyl}-6-(morpholin-4-yl)pyrimidin-4(3H)-one], under “PC3 cells”, the IC50 is 3 nM.

`CC1Cc2c(F)cccc2N1C(=O)Cc1nc(N2CCOCC2)cc(=O)[nH]1` (single isomer, unassigned; (-)) [Example 27c, (−)-2-{2-[4-fluoro-2-methyl-2,3-dihydro-1H-indol-1-yl]-2-oxoethyl}-6-(morpholin-4-yl)pyrimidin-4(3H)-one] came in with an IC50 (PC3 cells) of 4 nM.

Take `O=C(Cc1nc(N2CCOCC2)cc(=O)[nH]1)N1c2ccccc2CC1c1ccc(F)cc1` (single isomer, unassigned; (-)) [Example 28d, (−)-2-{2-[2-(4-fluorophenyl)-2,3-dihydro-1H-indol-1-yl]-2-oxoethyl}-6-(morpholin-4-yl)pyrimidin-4(3H)-one]: the IC50 (PC3 cells) is 2 nM.

Take `CC1Cc2c(F)cccc2N1C(=O)Cc1nc(N2CCOCC2)cc(=O)n1C` (single isomer, unassigned; (-)) [Example 29c, (−)-2-{2-[4-fluoro-2-methyl-2,3-dihydro-1H-indol-1-yl]-2-oxoethyl}-3-methyl-6-(morpholin-4-yl)pyrimidin-4(3H)-one]: the IC50 (Homo sapiens, PC-3, PC3 cells) stood at 53 nM.

`CC1Cc2c(OC(F)F)cccc2N1C(=O)Cc1nc(N2CCOCC2)cc(=O)[nH]1` (single isomer, unassigned; (-)) [Example 30d, (−)-2-{2-[4-(difluoromethoxy)-2-methyl-2,3-dihydro-1H-indol-1-yl]-2-oxoethyl}-6-(morpholin-4-yl)pyrimidin-4(3H)-one] returned an IC50 (PC3 cells) of 8 nM.

Consider `CC1Cc2c(Br)cccc2N1C(=O)Cc1nc(N2CCOCC2)cc(=O)n1C` (single isomer, unassigned; (-)) [Example 32c, (−)-2-{2-[4-bromo-2-methyl-2,3-dihydro-1H-indol-1-yl]-2-oxoethyl}-3-methyl-6-(morpholin-4-yl)pyrimidin-4(3H)-one], for which, under “PC3 cells”, the midpoint of inhibition, the IC50, lay at 14 nM.

For `CC1Cc2c(OC(F)F)cccc2N1C(=O)Cc1nc(N2CCOCC2)cc(=O)n1C` (single isomer, unassigned; (-)) [Example 32d, (−)-2-{2-[4-(difluoromethoxy)-2-methyl-2,3-dihydro-1H-indol-1-yl]-2-oxoethyl}-3-methyl-6-(morpholin-4-yl)pyrimidin-4(3H)-one], the IC50 (PC3 cells) turned out to be 60 nM.

Regarding `CC1Cc2c(Cl)cccc2N1C(=O)Cc1nc(N2CCOCC2)cc(=O)n1C` (single isomer, unassigned; (-)) [Example 34c, (−)-2-{2-[4-chloro-2-methyl-2,3-dihydro-1H-indol-1-yl]-2-oxoethyl}-3-methyl-6-(morpholin-4-yl)pyrimidin-4(3H)-one], 242 nM corresponded to half-maximal inhibition (PC3 cells) (IC50).

In turn, `O=C(Cc1nc(N2CCOCC2)cc(=O)[nH]1)N1c2ccccc2CC1C1CC1` (single isomer, unassigned; (-)) [Example 35d, (−)-2-[2-(2-cyclopropyl-2,3-dihydroindol-1-yl)-2-oxoethyl]-6-morpholin-4-yl-3H-pyrimidin-4-one] yielded an IC50 (PC3 cells) of 5 nM.

Take `CC1Cc2c(cccc2C(F)(F)F)N1C(=O)Cc1nc(N2CCOCC2)cc(=O)[nH]1` (single isomer, unassigned; (-)) [Example 37d, (−)-2-{2-[2-methyl-4-(trifluoromethyl)-2,3-dihydro-1H-indol-1-yl]-2-oxoethyl}-6-(morpholin-4-yl)pyrimidin-4(3H)-one]: for the setting “PC3 cells”, the IC50 came to 2 nM.

For the compound `CC1Cc2c(ccc(F)c2Cl)N1C(=O)Cc1nc(N2CCOCC2)cc(=O)[nH]1` (single isomer, unassigned; (-)) [Example 38c, (−)-2-{2-[4-chloro-5-fluoro-2-methyl-2,3-dihydro-1H-indol-1-yl]-2-oxoethyl}-6-(morpholin-4-yl)pyrimidin-4(3H)-one], the IC50 (PC3 cells) was 1 nM.

On to `CC(C)C1Cc2ccccc2N1C(=O)Cc1nc(N2CCOCC2)cc(=O)[nH]1` (single isomer, unassigned; (-)) [Example 39c, (−)-2-[2-(2-isopropyl-2,3-dihydroindol-1-yl)-2-oxoethyl]-6-morpholin-4-yl-3H-pyrimidin-4-one], for which inhibition (Homo sapiens, PC-3, PC3 cells) was half-maximal at 4 nM (IC50).

`CCC1Cc2ccccc2N1C(=O)Cc1nc(N2CCOCC2)cc(=O)[nH]1` (single isomer, unassigned; (-)) [Example 43c, (−)-2-[2-(2-ethyl-2,3-dihydroindol-1-yl)-2-oxoethyl]-6-morpholin-4-yl-3H-pyrimidin-4-one] gave an IC50 (PC3 cells) of 14 nM.

Under “Homo sapiens, PC-3, PC3 cells”, `CC(F)(C(=O)N1CCc2c(F)cccc21)c1nc(N2CCOCC2)cc(=O)[nH]1` (single isomer, unassigned; (-)) [Example 44c, (−)-2-[2-fluoro-1-(4-fluoro-2,3-dihydro-1H-indol-1-yl)-1-oxopropan-2-yl]-6-(morpholin-4-yl)pyrimidin-4(3H)-one] had an IC50 of 140 nM.

On to `O=C(Cc1nc(N2CCOCC2)c(F)c(=O)[nH]1)N1CCc2c(F)cccc21` [Example 1a, 5-fluoro-2-[2-(4-fluoro-2,3-dihydro-1H-indol-1-yl)-2-oxoethyl]-6-(morpholin-4-yl)pyrimidin-4(3H)-one], for which the IC50 (Homo sapiens, PC-3, PC3 cells) was determined as 22 nM.

In turn, `CC1CN(c2cc(=O)[nH]c(CC(=O)Nc3ccc(F)cc3)n2)CCO1` (centres unmarked) [Example 1b, N-(4-fluorophenyl)-2-[4-(2-methylmorpholin-4-yl)-6-oxo-1,6-dihydropyrimidin-2-yl]acetamide] displayed an IC50 (PC3 cells) of 26 nM.

The compound `CC1Cc2c(Cl)cccc2N1C(=O)Cc1nc(N2CCOCC2)cc(=O)[nH]1` (centres unmarked) [Example 1c, 2-[2-(4-chloro-2-methyl-2,3-dihydro-1H-indol-1-yl)-2-oxoethyl]-6-(morpholin-4-yl)pyrimidin-4(3H)-one] registered an IC50 (PC3 cells) of 5 nM.

For the compound `O=C(Cc1nc(N2CCOCC2)cc(=O)[nH]1)N1CC2(CC2)c2ccccc21` [Example 1d, 6-(morpholin-4-yl)-2-[2-oxo-2-(spiro[cyclopropan-1,3′-indol]-1′(2′H)-yl)ethyl]pyrimidin-4(3H)-one], under “Homo sapiens, PC-3, PC3 cells”, the IC50 was 26 nM.

The compound `C[C@H]1Cc2ccccc2N1C(=O)Cc1nc(N2CCOCC2)cc(=S)[nH]1` [Example 1e, 1-((S)-2-methyl-2,3-dihydroindol-1-yl)-2-(4-morpholin-4-yl-6-thioxo-1,6-dihydropyrimidin-2-yl)ethanone] returned an IC50 (Homo sapiens, PC-3, PC3 cells) of 22 nM.

`CC(C(=O)N1CCc2c(F)cccc21)c1nc(N2CCOCC2)c(F)c(=O)n1C` (centres unmarked) [Example 2a, 5-fluoro-2-[1-(4-fluoro-2,3-dihydro-1H-indol-1-yl)-1-oxopropan-2-yl]-3-methyl-6-(morpholin-4-yl)pyrimidin-4(3H)-one] returned an IC50 (Homo sapiens, PC-3, PC3 cells) of 938 nM.

On to `O=C(Cc1nc(N2CCOCC2)cc(=O)[nH]1)N1CCc2c(-c3ccccc3)cccc21` [Example 2d, 6-(morpholin-4-yl)-2-[2-oxo-2-(4-phenyl-2,3-dihydro-1H-indol-1-yl)ethyl]pyrimidin-4(3H)-one], for which 24 nM corresponded to half-maximal inhibition (Homo sapiens, PC-3, PC3 cells) (IC50).

Take `C[C@H]1Cc2ccccc2N1C(=S)Cc1nc(N2CCOCC2)cc(=S)[nH]1` [Example 2e, 2-[2-((S)-2-methyl-2,3-dihydroindol-1-yl)-2-thioxoethyl]-6-morpholin-4-yl-3H-pyrimidine-4-thione]: half-maximal inhibition (Homo sapiens, PC-3, PC3 cells) (IC50) was put at 4 nM.

The compound `Cn1c(CC(=O)N2CCc3c(F)cccc32)nc(N2CCOCC2)c(F)c1=O` [Example 3a, 5-fluoro-2-[2-(4-fluoro-2,3-dihydro-1H-indol-1-yl)-2-oxoethyl]-3-methyl-6-(morpholin-4-yl)pyrimidin-4(3H)-one] displayed an IC50 (Homo sapiens, PC-3, PC3 cells) of 158 nM.

`O=C(Cc1nc(N2CCOC(CF)C2)cc(=O)[nH]1)Nc1ccc(F)cc1` (centres unmarked) [Example 3b, 2-[4-(2-fluoromethylmorpholin-4-yl)-6-oxo-1,6-dihydropyrimidin-2-yl]-N-(4-fluorophenyl)acetamide]: inhibition (PC3 cells) was half-maximal at 271 nM (IC50).

(Values after patent publication US9133168B2, “Pyrimidine derivatives, preparation thereof, and pharmaceutical use thereof as akt(pkb) phosphorylation inhibitors” (SANOFI, priority 2010, dated 2015).)
